Measured values: patent US6242449A, “3-benzoylindole derivatives and drugs containing the same” (Zeria Pharmaceutical Co., Ltd., priority 1997, dated 2001)
Counter-ions that a name gives are not always drawn.

Tests used:
[1] = molecular target: Testosterone 5α-reductase; test: Testosterone 5α-reductase inhibitory action, nuclear fraction of rat prostates; assay type: biochemical, Wistar rat; conditions: rat prostate nuclear fraction, [4-^14 C]-testosterone, NADPH, pH 7.0, 60 minutes at 37° C.
Experimental: Male Wistar rats (age: 9-10 weeks old) were anesthetized with ether. The abdomen of each rat was median-cut to thereby remove the prostate. The isolated prostates were weighed and homogenized in 3 tissue volumes of 50 mM Tris-HCl buffer (pH 7.2) containing 0.25 M sucrose. The homogenates were filtered with gauze and centrifuged at 3,000 rpm for 10 minutes. The pellets were resuspended in a buffer as described above and the resultant suspension was used as a nuclear fraction.
The nuclear fraction of the prostates (0.1 ml), 5 mM NADPH (0.1 ml), and a test drug solution (DMSO solution containing the test drug; 0.01 ml) were added to 50 mM Tris-HCl buffer (pH 7.0; 0.78 ml). Reaction was initiated by addition of 150 μM [4-^14 C]-testosterone (0.01 ml) to the resultant solution, and the reaction mixture was incubated for 60 minutes at 37° C. After incubation, reaction was stopped by addition of ethyl acetate (4 ml), and simultaneously, the reaction mixture was subjected to extraction. The extract (3 ml) was brought to dryness through evaporation with nitrogen gas. Ethyl acetate (40 μl) was added thereto, and a 10 μl portion was applied to a silica gel thin layer plate for development with a solvent mixture of ethyl acetate and cyclohexane (1:1). After development, the plate was subjected to autoradiography, and spots attributed to testosterone, dihydrotestosterone, and other metabolites were collected by scraping. Radioactivity of the spots was counted in a liquid scintillation counter. From the total radioactivity and the radioactivity of 5α-metabolites, reaction ratio was obtained. IC50 of the compound, which represents the inhibitory activity of the test compound, was calculated from the reaction ratio of the control solvent and the reaction ratio obtained when the compound was added.

[2] = molecular target: T1, α1 -adrenergic receptor (Oryctolagus cuniculus, UniProt O02824); test: α1-Adrenergic receptor blocking action, rabbit prostate smooth muscle strips (phenylephrine contraction); assay type: cell-based
T1 construct: Transverse smooth muscle strips were prepared; from tissue; host or cells: rabbit prostate, transverse smooth muscle strips
T1 sequence (O02824 1-466): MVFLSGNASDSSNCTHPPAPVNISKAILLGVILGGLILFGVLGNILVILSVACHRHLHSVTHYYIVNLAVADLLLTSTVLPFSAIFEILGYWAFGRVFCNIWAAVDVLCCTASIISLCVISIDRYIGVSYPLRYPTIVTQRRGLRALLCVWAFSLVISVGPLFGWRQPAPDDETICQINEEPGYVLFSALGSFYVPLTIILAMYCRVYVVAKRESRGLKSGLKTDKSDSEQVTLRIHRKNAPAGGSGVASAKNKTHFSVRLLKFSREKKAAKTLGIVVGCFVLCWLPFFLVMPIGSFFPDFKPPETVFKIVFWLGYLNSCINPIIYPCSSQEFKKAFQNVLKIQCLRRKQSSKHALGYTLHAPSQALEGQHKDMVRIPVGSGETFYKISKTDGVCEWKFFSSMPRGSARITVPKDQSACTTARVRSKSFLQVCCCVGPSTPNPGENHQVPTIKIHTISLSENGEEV
Experimental: (§1) Rabbits were sacrificed by exsanguination, and in each rabbit the urethra and prostate were isolated from the lower urinary tract system. Transverse smooth muscle strips were prepared. Each strip was suspended in a 37° C. Krebs-solution-containing organ bath which had been bubbled with 95% O2 and 5% CO2. Isometric contraction under a resting tension of 1 g was recorded with an isometric transducer (TB-651T, Nihon Koden) on a thermal pen-type recorder (RECTI HORIZ 8K, Nihon Denki San'ei).
(§2) The strip was allowed to stand for equilibration for 60 minutes, and contractions were elicited by a certain concentration of phenylephrine (10^-5 M). The organ bath was washed with a nutrient liquid. Thereafter, the above procedure was repeated at 60-minute intervals until constant contraction responses were obtained. Subsequently, dose-response curves were obtained by administration of phenylephrine in an accumulative manner (10^-7 to 3×10^-4 M). After the strips were washed and then rested for 60 minutes, the strips were treated with a test drug solution (i.e., DMSO solution containing the test drug; 10^-7 to 10^-5 M) for 30 minutes, to thereby obtain dose-response curves for phenylephrine.
(§3) The composition of the nutrient solution was as follows.
(§4) In all cases, 10^-5 M propranolol (β-adrenaline antagonist) was administered 10 minutes before administration of the drug.
(§5) The efficacy of each test drug in terms of α1 -adrenergic receptor blocking action was assessed from calculation of pA2 (inverse of logarithm of the mole concentration of antagonist which requires, in the presence of an antagonist, twice the concentration of an agonist that provides an effect equal to that obtained in the absence of an antagonist).

[3] = molecular target: T1, α1 -adrenergic receptor; test: α1-Adrenergic receptor blocking action, rabbit urethra smooth muscle strips (phenylephrine contraction); assay type: cell-based
Experimental: as §1, §2, §3, §4, §5

[4] = rabbit prostate strips, phenylephrine 10^-7 to 3×10^-4 M, test drug 30 minutes, 10^-5 M propranolol present, read-out: Prostate (pA2) (converted)
[5] = rabbit urethra strips, phenylephrine 10^-7 to 3×10^-4 M, test drug 30 minutes, 10^-5 M propranolol present, read-out: Urethra (pA2) (converted)

CCOc1ccccc1N1CCN(CCCOc2cc(C(=O)c3cn(CCCC(=O)O)c4ccccc34)ccc2NCc2ccc(C)cc2)CC1 [Example 8, 4-{3-{4-[(4-Methylphenyl)methylamino]-3-{3-[4-(2-ethoxyphenyl)piperazin-1-yl]propoxy}benzoyl}indol-1-yl}butanoic acid]
IC50 [1]: 1 nM

CCc1ccc(CNc2ccc(C(=O)c3cn(CCCC(=O)O)c4ccccc34)cc2OCCCN2CCN(c3ccccc3OC)CC2)cc1 [Example 1, 4-{3-{4-(4-Ethylphenyl)methylamino-3-{3-[4-(2-methoxyphenyl)piperazin-1-yl]propoxy}benzoyl}indol-1-yl}butanoic acid hydrochloride]
IC50 [1]: 0.7 nM | Kb [2]: 224 nM | Kb [3]: 302 nM

COc1ccccc1N1CCN(CCCOc2cc(C(=O)c3cn(CCCC(=O)O)c4ccccc34)ccc2NCc2ccccc2)CC1 [Example 5]
Kb [2, 4]: 53.7 nM | Kb [3, 5]: 174 nM

CCOc1ccccc1N1CCN(CCCOc2cc(C(=O)c3cn(CCCC(=O)O)c4ccccc34)ccc2NCc2ccc(CC)cc2)CC1 [Example 10, 4-{3-{3-{3-[4-(2-Ethoxyphenyl)piperazin-1-yl]propoxy}-4-[(4-ethylphenyl)methylamino]benzoyl}indol-1-yl}butanoic acid]
IC50 [1]: 0.47 nM

COc1ccccc1N1CCN(CCCOc2cc(C(=O)c3cn(CCCC(=O)O)c4ccccc34)ccc2NCc2ccc(C)cc2)CC1 [Example 7]
IC50 [1]: 0.86 nM | Kb [2, 4]: 95.5 nM | Kb [3, 5]: 316 nM
